# Reference: doi:10.1101/2024.07.10.602890, “H105A peptide eye drops promote photoreceptor survival in murine and human models of retinal degeneration” (bioRxiv, 2024)
# Ends that are not written are not given here.
# Molecular target: T1, recombinant human PEDF-R[1–288] (Homo sapiens, UniProt Q96AD5)
# T1 construct: SUMOstar (N); His tag (implied by HisTrap purification; part of the pE-SUMOstar vector) (N); TwinStrep (C); made in house; host or cells: Escherichia coli Rosetta(DE3), co-transformed with pGro7 (groES-groEL)
# T1 sequence (Q96AD5 1-288): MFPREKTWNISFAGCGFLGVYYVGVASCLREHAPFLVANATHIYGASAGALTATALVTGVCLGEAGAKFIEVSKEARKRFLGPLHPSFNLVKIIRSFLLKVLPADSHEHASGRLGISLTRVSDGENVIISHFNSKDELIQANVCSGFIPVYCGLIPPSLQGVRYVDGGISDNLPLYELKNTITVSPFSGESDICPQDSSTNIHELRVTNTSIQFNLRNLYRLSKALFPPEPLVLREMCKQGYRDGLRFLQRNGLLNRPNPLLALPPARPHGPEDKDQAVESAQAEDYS
# Assay: Phospholipase A2 (PLA2) activity assay of PEDF-R with peptides
# Assay type: biochemical
# Conditions: purified recombinant PEDF-R[1–288] 60 nM; peptides preincubated 30 min at room temperature; EnzChek PLA2 kit; six replicate reactions
# Excerpt: Fig. 1: Penetration and Bioavailability of PEDF Peptides 17-mer, H105A, and R99A Delivered via Eye Drops in Mouse Retinas (A) Peptide mapping and sequence. Tertiary structure of human PEDF highlighting the small peptide region with neurotrophic activity (17-mer) in blue (top). Primary structure of human PEDF showing the location of the 17-mer region (middle). Sequences of the 17-mer peptide and its variants, H105A and R99A (bottom). (B) In vivo detection of peptides. Fundus micrographs showing fluorescence from Alexa Fluor 488-labeled 17-mer, H105A, and R99A peptides in the eyes of C57Bl/6J mice at P21 days after eye drop administration of 5 μl of peptide at 1 mg/ml (left). […] Quantification of fluorescence intensity over time post-administration (right). […] (C) Quantification of peptide in retinas. […] The amount of peptide was quantified from the fluorescence in retinal extracts using standard curves (Fig. S6A). […] (D) Retinal cross-sections showing fluorescence distribution in the photoreceptor layer 1 hour after applying eye drops as in Panel B. Representative images for labeled 17-mer, H105A, and R99A peptides are shown, with magnified areas of 17-mer and H105A indicated by dotted rectangles. […] (F) Effects of 17-mer, H105A, and R99A peptides on the PLA2 activity of PEDF-R. Peptides were preincubated with recombinant human PEDF-R[1–288] for 30 min, and PLA2 activity was measured. […]
row,Sequence,stimulation of PLA2 activity of PEDF-R
1,QRTESIIHRALYYDLIS [17-mer],capable of stimulating its PLA2 activity
2,QRTESIIARALYYDLIS [H105A],capable of stimulating its PLA2 activity
